“And” between values parts separate entries of the source, which are not always exact repeats. Identical values can stand only once.
Legend:
FAKcd409 = target: T1, FAKcd409 (Homo sapiens, UniProt Q05397, P410T); assay: FAK HTS assay; type: biochemical; conditions: 10 uM compound, HTS Delphia assay; 10 µM
T1 construct: comprises residues methionine 409 to glutamate 689; made in house; host or cells: baculovirus vector expression system

CHK1 = target: T2, CHK1 (Homo sapiens, UniProt O14757); assay: CHK1 high-throughput screening; type: biochemical; conditions: for % inhibition @ 20 μM: Table 4, repeated entries per example; for inhibition at 20 µM: read-out: % inhibition @ 20 μM, Table 4, repeated entries per example
T2 sequence (O14757 1-476): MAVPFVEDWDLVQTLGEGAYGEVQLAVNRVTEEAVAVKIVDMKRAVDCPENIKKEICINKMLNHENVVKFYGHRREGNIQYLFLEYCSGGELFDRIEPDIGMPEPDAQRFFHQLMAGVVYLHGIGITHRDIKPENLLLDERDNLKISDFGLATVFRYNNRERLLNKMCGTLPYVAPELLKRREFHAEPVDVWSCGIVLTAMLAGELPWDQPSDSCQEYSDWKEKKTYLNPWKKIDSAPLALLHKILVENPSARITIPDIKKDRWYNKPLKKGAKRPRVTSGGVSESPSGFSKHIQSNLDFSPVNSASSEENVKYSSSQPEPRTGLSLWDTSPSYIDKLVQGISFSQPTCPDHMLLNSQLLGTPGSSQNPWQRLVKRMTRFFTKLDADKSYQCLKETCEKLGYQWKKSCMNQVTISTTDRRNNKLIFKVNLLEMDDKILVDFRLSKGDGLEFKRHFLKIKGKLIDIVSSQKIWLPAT

CDK2/Cyclin A complex = CDK2/Cyclin A complex (Homo sapiens, UniProt P24941); assay: CDK2/Cyclin A assay; type: biochemical; conditions: Table 2
In short: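 Radiometric assay: 150 nM CDK2/cyclin A (insect-cell CDK2, truncated cyclin A) phosphorylates His-tagged Rb fragment (residues 386-928) with 25 μM ATP plus [32P]ATP, pH 7.4 HEPES, 2% DMSO, 30 °C for 20 min. Filter-captured product counted by phosphorimager; apparent Ki from competitive or tight-binding inhibition fits.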

CDK4/Cyclin D3 complex = target: T3, CDK4/Cyclin D3 complex (Homo sapiens, UniProt P11802); assay: CDK4/Cyclin D assay; type: biochemical; conditions: Table 2
T3 construct: made in house; host or cells: insect cells co-infected with baculovirus vectors
In short: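 Insect-cell-expressed CDK4/cyclin D3 (50 nM) phosphorylating His-tagged Rb fragment (residues 386-928) with 25 μM [^32P]ATP in HEPES pH 7.4, MgCl2, 2% DMSO; 20 min at 30 °C, EDTA stop. Filter-captured 32P by phosphorimager; apparent Ki from competitive or tight-binding inhibition fits.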

[1] = target: T4, phosphorylated VEGF-R2Δ50 (FLVK-P) (Homo sapiens, UniProt P35968, DEL940-989/E990V); assay: VEGF-R2 coupled spectrophotometric (FLVK-P) assay; type: biochemical; conditions: for Ki: spectrophotometric assay
T4 construct: VEGF-R2Δ50 contains residues 806-939 and 990-1171; made in house; host or cells: baculovirus/insect cells
In short: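 Baculovirus-expressed human VEGF-R2Δ50 (residues 806-939/990-1171, E990V) was autophosphorylated with 3 mM ATP, 40 mM MgCl2 for 2 h at 4° C. ADP formation was coupled via PK/LDH to NADH oxidation, read at 340 nm, with 5.1 mM poly(E4Y1), 1 mM ATP, 25 mM MgCl2, Hepes pH 7.5. Ki came from activity across compound concentrations.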

[2] = tested on: human umbilical vein endothelial cells (HUVEC); assay: HUVEC proliferation assay; type: cell-based; conditions: Homo sapiens, HUVEC, Table 1
In short: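 Readout was MTT dye reduction (A595) after 72 h of stimulation with VEGF at 6 ng/ml final. Compound, in 0.1% DMSO final, was added 1 h before VEGF to HUVEC starved 24 h in 1% FBS. % inhibition was scaled between VEGF-alone and unstimulated wells; IC50 was fitted from triplicate dose curves.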

[3] = tested on: lung cancer cells (line MV522); assay: Cancer cell proliferation (MV522) assay; type: cell-based; conditions: MV522, Table 1
[4] = target: T5, phosphorylated VEGF-R2Δ50 (Homo sapiens, UniProt P35968, DEL940-989/E990V); assay: VEGF-R2 ELISA assay; type: biochemical; conditions: Table 2; * determined with ELISA assay; read-out: FLVK-P Ki
T5 construct: VEGF-R2Δ50 contains residues 806-939 and 990-1171; made in house; host or cells: baculovirus/insect cells
In short: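 Pre-autophosphorylated human VEGF-R2Δ50 (residues 806-939/990-1171, E990V; baculovirus) at 0.8 nM was run with 2 μM biotin-gastrin(1-17), 20 μM ATP, 26 mM MgCl2, 2 mM MnCl2, pH 7.5 Hepes. Phosphopeptide was captured on streptavidin and detected by anti-pTyr-HRP/ABTS at 405 nm; Ki came from activity at varying compound concentrations.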

T1 sequence (Q05397 409-689 P410T): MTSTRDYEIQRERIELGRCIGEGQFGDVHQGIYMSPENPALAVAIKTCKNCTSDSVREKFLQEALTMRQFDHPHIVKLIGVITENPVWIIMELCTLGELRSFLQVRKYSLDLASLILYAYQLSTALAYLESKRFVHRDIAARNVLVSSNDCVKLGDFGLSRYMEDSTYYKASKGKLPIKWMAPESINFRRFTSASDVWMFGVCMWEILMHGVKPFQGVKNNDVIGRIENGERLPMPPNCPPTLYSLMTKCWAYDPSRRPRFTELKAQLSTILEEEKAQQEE
T3 sequence (P11802 whole entry): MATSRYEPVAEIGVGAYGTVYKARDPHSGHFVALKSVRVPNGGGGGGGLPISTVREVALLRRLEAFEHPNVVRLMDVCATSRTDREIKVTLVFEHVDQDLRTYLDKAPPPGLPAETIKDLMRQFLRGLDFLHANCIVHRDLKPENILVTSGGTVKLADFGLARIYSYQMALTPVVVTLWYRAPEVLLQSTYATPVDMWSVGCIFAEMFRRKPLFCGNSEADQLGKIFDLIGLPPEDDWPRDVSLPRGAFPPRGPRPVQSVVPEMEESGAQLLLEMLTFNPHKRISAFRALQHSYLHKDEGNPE
T3 sequence (P30281 whole entry partner): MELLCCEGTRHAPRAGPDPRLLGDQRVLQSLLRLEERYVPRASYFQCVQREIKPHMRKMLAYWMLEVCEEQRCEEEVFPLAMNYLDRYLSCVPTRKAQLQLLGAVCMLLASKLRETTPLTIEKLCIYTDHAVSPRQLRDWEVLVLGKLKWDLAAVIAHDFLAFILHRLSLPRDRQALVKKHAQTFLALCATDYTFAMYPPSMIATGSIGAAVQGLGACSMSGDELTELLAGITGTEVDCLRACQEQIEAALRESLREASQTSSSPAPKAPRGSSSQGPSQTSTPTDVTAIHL
T4 sequence (P35968 with tags, fused parts or gaps DEL940-989/E990V limits assumed): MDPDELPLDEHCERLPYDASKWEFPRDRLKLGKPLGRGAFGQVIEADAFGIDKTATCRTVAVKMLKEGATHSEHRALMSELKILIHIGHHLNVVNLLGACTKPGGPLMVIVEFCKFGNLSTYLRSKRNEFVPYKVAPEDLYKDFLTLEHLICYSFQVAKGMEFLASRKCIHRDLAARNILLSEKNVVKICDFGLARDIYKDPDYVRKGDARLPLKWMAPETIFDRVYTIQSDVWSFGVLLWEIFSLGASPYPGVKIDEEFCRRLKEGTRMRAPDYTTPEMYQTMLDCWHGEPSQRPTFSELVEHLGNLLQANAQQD
T5 sequence (P35968 with tags, fused parts or gaps DEL940-989/E990V limits assumed): as above

Row | % inhibition of FAK (FAKcd409) | % inhibition @ 20 μM (CHK1) | inhibition at 20 µM (CHK1) [%] | Compound | further results
1 | −31% and −39% | 3.2% and 2.5% and 8.2% | – | COc1ccc(/C=C/c2csc(-c3sc(Nc4ccc(S(N)(=O)=O)cc4)nc3N)n2)cc1O [A(65), 4-{4′-Amino-4-[2-(3-hydroxy-4-methoxy-phenyl)-ethenyl]-[2,5′]bithiazolyl-2′-ylamino}-benzenesulfonamide] | melting point: 190 to 193 °C (dec.); Ki (CDK2/Cyclin A complex): 150 nM; Ki (CDK4/Cyclin D3 complex): 2100 nM
2 | −10% and −8% | – | 4 | Nc1nc(Nc2cccnc2)sc1-c1nc(-c2cccc(NC(=O)c3ccccc3)c2)cs1 [A(53), 3-(4′-Amino-4-(3-benzamidophenyl)-[2,5′]bithiazolyl-2′-ylamino)-pyridine] | Ki ([1]; Table 1): 24 nM; IC50 [2]: 370 nM; IC50 [3]: > 10000 nM
3 | −2% and −8% | – | 1.3 | CC(=O)Nc1cc(Nc2nc(N)c(-c3nc(-c4cccc(NC(=O)c5ccccc5)c4)cs3)s2)ccc1C [A(48), N-{3-[2′-(3-Acetylamino-4-methyl-phenylamino)-4′-amino-[2,5′]bithiazolyl-4-yl]-phenyl}-benzamide] | Ki ([1]; Table 1): 3.1 nM; IC50 [2]: 350 nM; IC50 [3]: > 10000 nM
4 | −3% and −8% and −13% | 4.6% and −3.4% | – | COc1cc(Nc2nc(N)c(-c3nc(-c4cccc(C(=O)Nc5ccc(C(C)C)c(C)c5)c4)cs3)s2)cc(OC)c1OC [A(34), 3-[4′-Amino-2′-(3,4,5-trimethoxy-phenylamino)-[2,5′]bithiazolyl-4-yl]-N-(4-isopropyl-3-methyl-phenyl)-benzamide] | –
5 | −29% and −33% | – | – | Nc1nc(Nc2ccc(S(N)(=O)=O)cc2)sc1-c1nc(C(=O)c2ccccc2)cs1 [A(67), 4-(4′-Amino-4-benzoyl-[2,5′]bithiazolyl-2′-ylamino)-benzenesulfonamide] | melting point: 255 to 260 °C (dec.); Ki ([1]; Table 2): 110 nM; Ki (CDK2/Cyclin A complex): 15 nM; Ki (CDK4/Cyclin D3 complex): 670 nM
6 | −15% and −5% and −10% | – | -7.1 | Cc1cccc(Nc2nc(N)c(-c3nc(-c4cccc(NC(=O)c5ccccc5)c4)cs3)s2)c1 [A(44), [3-(4′-Amino-2′-m-tolylamino-[2,5′]bithiazolyl-4-yl)-phenyl]-benzamide] | –
7 | −13% and −4% and −6% | – | -1 | Nc1nc(Nc2ccc3c(c2)OCCO3)sc1-c1nc(-c2cccc(NC(=O)c3ccccc3)c2)cs1 [A(45), N-{3-[4′-Amino-2′-(2,3-dihydro-benzo[1,4]dioxin-6-ylamino)-[2,5′]bithiazolyl-4-yl]-phenyl}-benzamide] | Ki ([1]; Table 1): 9.7 nM
8 | −38% and −39% | 3.6% and 6.6% and 9.1% | – | Nc1nc(Nc2ccc(S(N)(=O)=O)cc2)sc1-c1nc(/C=C/C=C/c2ccccc2)cs1 [A(66), 4-[4′-Amino-4-(4-phenyl-buta-1,3-dienyl)-[2,5′]bithiazolyl-2′-ylamino]-benzenesulfonamide] | melting point: 193 to 195 °C (dec.); Ki (CDK2/Cyclin A complex): 1100 nM
9 | −5% and −9% and −10% | – | – | COc1cc(Nc2nc(N)c(-c3nc(-c4cccc(C(=O)Nc5ccc6nc(C)ccc6c5)c4)cs3)s2)cc(OC)c1OC [A(35), 3-[4′-Amino-2′-(3,4,5-trimethoxy-phenylamino)-[2,5′]bithiazolyl-4-yl]-N-(2-methyl-quinolin-6-yl)-benzamide] | Ki [4]: 390000 nM
10 | −23% and −30% | 14.4% and 7.3% | 14.3 | CCOC(=O)c1nc(-c2sc(Nc3ccc(S(N)(=O)=O)cc3)nc2N)sc1Cc1ccccc1 [A(73), 4′-Amino-5-benzyl-2′-(4-sulfamoyl-phenylamino)-[2,5′]bithiazolyl-4-carboxylic acid ethyl ester] | CDK2 % inhibition @ 100 (CDK2/Cyclin A complex; at 100 (printed 100 or 100 μM)): 36% @; inhibition at 100 µM (CDK4/Cyclin D3 complex; at 100 (printed 100 or 100 μM)): < 0%
11 | −6% and −11% and −15% | – | 2.8 | Cc1ccc(Nc2nc(N)c(-c3nc(-c4cccc(NC(=O)OCc5ccccc5)c4)cs3)s2)cc1 [A(36), [3-(4′-Amino-2′-p-tolylamino-[2,5′]bithiazolyl-4-yl)-phenyl]-carbamic acid benzyl ester] | FLVK-P % inhibition @ 0.05 ([1]; Table 1, at 0.05, concentration unit not printed (head nM)): 36% @

Source: patent US6620828B2, “Thiazole compounds and pharmaceutical compositions for inhibiting protein kinases and methods for their use” (Agouron Pharmaceuticals, Inc., priority 1999, dated 2003)
